According to patent US20260174874A1, “INSULIN DERIVATIVES” (USTAV ORGANICKE CHEMIE A BIOCHEMIE AKADEMIE VED CR, V. V. I., priority 2022, published 2026):
“And” between values parts separate entries of the source, which are not always exact repeats. Equal entries are not always repeated. Where two headings read alike, the source gives them in different places. Marks after values point to notes of the source that are not given here.

Columns and labels:
IR-A = IR-A (Homo sapiens, UniProt P06213); settings: published; (Kd of native hormone/Kd of derivative) × 100; cited from earlier work
IGF-1R [1] = molecular target: T1, IGF-1R (Homo sapiens, UniProt P08069); settings: cited from earlier work
IR-B = IR-B (Homo sapiens, UniProt P06213); settings: published; (Kd of native hormone/Kd of derivative) × 100; cited from earlier work
SH-SY5Y cells = experiment: Protection of SH-SY5Y cells against methylglyoxal toxicity (MTT assay); type: cell-based; settings: methylglyoxal 1.5 mmol·l-1, SY5Y cells
IGF-1R [2] = molecular target: T1, IGF-1R; experiment: competition with 125I-IGF-1 on mouse fibroblasts transfected with human IGF-1R; relative to human insulin
[3] = published, (Kd of native hormone/Kd of derivative) × 100

IR-A, sequence (P06213 28-1370 isoform P06213-2 limits assumed): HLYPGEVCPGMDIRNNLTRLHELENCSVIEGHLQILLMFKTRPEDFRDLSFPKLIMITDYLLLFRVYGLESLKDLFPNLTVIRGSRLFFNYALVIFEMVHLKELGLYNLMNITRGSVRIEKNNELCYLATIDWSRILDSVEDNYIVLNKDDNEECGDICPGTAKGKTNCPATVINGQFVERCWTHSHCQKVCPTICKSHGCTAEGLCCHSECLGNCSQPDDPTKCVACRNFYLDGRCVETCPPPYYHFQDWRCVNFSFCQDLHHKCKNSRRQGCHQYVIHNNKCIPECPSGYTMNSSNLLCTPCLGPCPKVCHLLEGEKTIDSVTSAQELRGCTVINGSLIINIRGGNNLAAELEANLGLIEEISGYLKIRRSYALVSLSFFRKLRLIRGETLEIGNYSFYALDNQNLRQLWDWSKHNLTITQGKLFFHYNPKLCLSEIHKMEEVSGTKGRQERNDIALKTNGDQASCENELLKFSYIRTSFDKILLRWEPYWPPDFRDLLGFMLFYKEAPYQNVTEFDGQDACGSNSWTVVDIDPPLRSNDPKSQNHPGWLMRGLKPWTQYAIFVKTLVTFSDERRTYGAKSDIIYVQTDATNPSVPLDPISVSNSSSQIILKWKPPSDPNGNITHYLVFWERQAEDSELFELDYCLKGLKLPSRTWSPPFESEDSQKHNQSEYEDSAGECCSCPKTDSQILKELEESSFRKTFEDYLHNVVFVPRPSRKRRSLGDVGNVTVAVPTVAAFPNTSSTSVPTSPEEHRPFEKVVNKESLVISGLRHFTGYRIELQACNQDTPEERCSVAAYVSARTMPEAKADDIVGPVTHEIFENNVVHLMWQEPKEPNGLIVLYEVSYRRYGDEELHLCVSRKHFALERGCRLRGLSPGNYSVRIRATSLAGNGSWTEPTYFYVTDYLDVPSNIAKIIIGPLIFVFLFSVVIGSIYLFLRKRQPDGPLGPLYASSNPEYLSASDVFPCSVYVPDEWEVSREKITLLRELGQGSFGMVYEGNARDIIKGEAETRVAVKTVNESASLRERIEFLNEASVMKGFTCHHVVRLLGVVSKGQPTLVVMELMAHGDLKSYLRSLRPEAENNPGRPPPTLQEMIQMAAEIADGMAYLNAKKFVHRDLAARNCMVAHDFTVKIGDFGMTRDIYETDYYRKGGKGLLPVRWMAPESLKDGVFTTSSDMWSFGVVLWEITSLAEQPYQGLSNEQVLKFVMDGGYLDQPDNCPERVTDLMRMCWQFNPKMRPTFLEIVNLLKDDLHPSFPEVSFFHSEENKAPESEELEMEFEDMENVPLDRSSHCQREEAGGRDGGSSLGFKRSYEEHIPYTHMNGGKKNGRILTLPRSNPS
IR-A, sequence (P06213 763-1382 limits assumed): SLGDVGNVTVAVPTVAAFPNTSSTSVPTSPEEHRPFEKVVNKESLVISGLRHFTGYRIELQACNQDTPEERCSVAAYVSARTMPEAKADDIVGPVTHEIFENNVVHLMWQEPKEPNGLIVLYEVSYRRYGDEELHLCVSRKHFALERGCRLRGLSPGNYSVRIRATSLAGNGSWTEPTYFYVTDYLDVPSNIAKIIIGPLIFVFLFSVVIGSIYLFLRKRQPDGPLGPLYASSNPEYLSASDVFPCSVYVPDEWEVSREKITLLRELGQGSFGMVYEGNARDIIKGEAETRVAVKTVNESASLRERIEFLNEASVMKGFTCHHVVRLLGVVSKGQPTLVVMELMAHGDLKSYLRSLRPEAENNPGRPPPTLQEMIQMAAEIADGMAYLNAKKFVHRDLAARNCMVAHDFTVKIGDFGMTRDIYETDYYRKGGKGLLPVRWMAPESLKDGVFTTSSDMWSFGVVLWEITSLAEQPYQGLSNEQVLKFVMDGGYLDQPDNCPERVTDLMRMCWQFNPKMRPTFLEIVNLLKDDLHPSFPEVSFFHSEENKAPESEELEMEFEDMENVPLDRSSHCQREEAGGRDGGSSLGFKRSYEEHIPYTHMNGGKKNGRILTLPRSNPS
IR-B, sequence (P06213 28-758 limits assumed): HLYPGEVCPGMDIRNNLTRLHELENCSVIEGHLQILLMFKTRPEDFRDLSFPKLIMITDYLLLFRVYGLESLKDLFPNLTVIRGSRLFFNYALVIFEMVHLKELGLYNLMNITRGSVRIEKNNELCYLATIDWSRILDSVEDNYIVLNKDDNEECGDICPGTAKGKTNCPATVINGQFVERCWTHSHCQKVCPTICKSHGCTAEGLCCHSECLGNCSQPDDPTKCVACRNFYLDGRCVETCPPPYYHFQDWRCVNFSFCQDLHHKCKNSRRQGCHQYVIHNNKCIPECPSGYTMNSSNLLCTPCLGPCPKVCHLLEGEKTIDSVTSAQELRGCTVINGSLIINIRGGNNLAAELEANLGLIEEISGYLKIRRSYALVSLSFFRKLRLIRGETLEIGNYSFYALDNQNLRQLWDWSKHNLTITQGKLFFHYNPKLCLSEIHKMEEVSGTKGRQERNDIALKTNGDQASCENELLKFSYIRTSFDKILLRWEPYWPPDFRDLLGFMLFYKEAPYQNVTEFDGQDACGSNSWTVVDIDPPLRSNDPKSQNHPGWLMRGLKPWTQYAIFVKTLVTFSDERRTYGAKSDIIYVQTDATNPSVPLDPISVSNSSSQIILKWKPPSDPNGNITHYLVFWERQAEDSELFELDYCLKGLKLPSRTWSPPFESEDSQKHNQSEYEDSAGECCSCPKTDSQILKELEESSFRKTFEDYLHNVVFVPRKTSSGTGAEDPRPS
IR-B, sequence (P06213 763-1382 limits assumed): as the sequence (P06213 763-1382 limits assumed) above
IN-ML-15 (GluB10, D-HisB24, GlyB31, TyrB32-insulin) (ligand), sequence (chain): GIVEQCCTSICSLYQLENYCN
IN-ML-15 (GluB10, D-HisB24, GlyB31, TyrB32-insulin) (ligand), sequence (chain): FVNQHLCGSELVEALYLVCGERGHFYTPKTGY

Row | Compound | Relative binding affinity for IR-A (%) (IR-A) | Relative binding affinity for IR-B (%) (IR-B) | Relative binding affinity for IGF-1R (%) (IGF-1R [1]; [3]) | also measured
1 | D-PheB24-insulin | 180% | – | – | –
2 | AspB10-insulin | 206% | – | – | Relative binding affinity for IGF-1R (%) (IGF-1R [1]; Converted from Schaffer data): 0.2* %
3 | D-HisB24, GlyB31, TyrB32-insulin | 251% | 338% | 12% and 12.4% | –
4 | CC(=O)C=O [Methylglyoxal, methylglyoxal] | – | – | – | amount of cells grown in the wells compared with the control (SH-SY5Y cells): 50-60%
5 | IN-ML-15 (GluB10, D-HisB24, GlyB31, TyrB32-insulin) (ligand) | – | – | – | times more potent than insulin (IGF-1R [2]): 790 times
6 | GlyB31, TyrB32-insulin | 162% | 310% | 0.27% | –
7 | D-AlaB24-insulin | 150% | – | – | –
8 | D-ProB24-insulin | 1.3% | – | – | –
9 | GluB10-insulin | 407% | – | – | –
10 | D-HisB24-insulin | 280% | 250% | 1.0% | –
